Where a name gives a salt, the structure may show the parent alone.

This experiment concerns the target T1, MerTK (Homo sapiens, UniProt Q12866).
T1 construct: endogenous in cells; host or cells: Jurkat cells
T1 sequence (Q12866 21-999): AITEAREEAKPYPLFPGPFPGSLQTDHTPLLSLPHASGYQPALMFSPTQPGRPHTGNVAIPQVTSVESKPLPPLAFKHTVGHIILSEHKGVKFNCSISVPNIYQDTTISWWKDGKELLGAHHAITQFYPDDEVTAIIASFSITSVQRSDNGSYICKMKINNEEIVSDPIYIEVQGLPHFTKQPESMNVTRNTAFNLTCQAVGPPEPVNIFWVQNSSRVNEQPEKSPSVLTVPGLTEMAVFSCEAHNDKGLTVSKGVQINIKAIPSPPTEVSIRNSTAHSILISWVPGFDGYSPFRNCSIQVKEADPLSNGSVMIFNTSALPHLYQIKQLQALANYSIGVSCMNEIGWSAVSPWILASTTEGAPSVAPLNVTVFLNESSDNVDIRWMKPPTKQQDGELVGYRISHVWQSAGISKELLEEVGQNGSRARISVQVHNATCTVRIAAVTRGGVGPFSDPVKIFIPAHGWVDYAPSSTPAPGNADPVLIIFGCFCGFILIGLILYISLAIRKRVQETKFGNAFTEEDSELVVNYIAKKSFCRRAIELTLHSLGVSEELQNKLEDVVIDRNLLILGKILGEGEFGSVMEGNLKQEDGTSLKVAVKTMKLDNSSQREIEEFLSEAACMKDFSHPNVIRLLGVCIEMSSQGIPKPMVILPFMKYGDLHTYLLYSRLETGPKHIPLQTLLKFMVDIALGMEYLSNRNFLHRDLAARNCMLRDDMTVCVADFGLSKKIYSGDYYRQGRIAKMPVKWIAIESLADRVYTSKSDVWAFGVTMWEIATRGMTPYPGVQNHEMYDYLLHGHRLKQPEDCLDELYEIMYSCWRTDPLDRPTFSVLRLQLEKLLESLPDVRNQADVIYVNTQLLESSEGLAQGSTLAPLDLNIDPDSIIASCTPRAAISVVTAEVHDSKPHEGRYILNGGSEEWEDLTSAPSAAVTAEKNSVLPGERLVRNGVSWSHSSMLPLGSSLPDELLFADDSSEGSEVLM
The experiment can be described thus: MerTk degradation in Jurkat cells (Western blot). The class given is cell-based. The note with it: Jurkat, 4 h, 0.001-1 μM, 4 hour-incubation at 37° C., read-out: Jurkat Max % MerTK Degradation. On the procedure: Compounds were reconstituted in DMSO to make 10 mM stock solutions. […] Cells were seeded into 6-well plates with about 5×10^6 cells per well. 2 μL of diluted compounds were added to cells to the final concentration of 0.001-1 μM. After a 4 hour-incubation at 37° C., cells were collected into 2 mL Eppendorf tubes and centrifuged at 1,000 rpm for 5 min. The cell pellets were washed with DPBS (1×) once and resuspended in 60 μL RIPA lysis buffer with Halt Protease and Phophatase Inhibitor Cocktail. The cells were lysed on ice for 10 min, then centrifuged at 14,000 rpm for 10 min at 4° C. and the supernatants were collected for western blots.
The protein concentration of cell lysates was quantified with Pierce™ BCA Protein Assay Kit. […] BCA working reagents were prepared by mixing BCA reagent A with reagent B in 50: 1 ratio. 200 μL of the BCA working reagents were added to 25 μL of BCA standard or cell lysates in microplate, and mixed thoroughly on a plate shaker for 30 seconds. After incubation at 37° C. for 30 min, the absorbance of samples at 562 nm were measured with EnVision Plate Reader.
Protein lysates were prepared in NuPAGE™ LDS sample buffer and NuPAGE™ sample reducing agent, and incubated at 95° C. for 5 min. […] The proteins were transferred to low fluorescence PVDF membranes using the Trans-Blot Turbo Transfer System. Membranes were then blocked in Odyssey blocking buffer at RT for 1 h followed by primary incubation at 4° C. overnight. The primary antibodies were MerTK rabbit monoclonal antibody and actin mouse monoclonal antibody. Membranes were washed three times with TBST (1×), and then incubated with IR Dye 800 CW Goat anti-rabbit and IR Dye 700 CW Goat anti-mouse secondary antibodies in 1:10,000 dilution at RT for 1 h. The Western blot images were obtained using Odyssey Imaging System.
(In general: A western blot detects proteins with antibodies after separation by electrophoresis.)

For `CN(C)c1cccc2c(S(=O)(=O)Nc3cccc(-c4cnc(NCCOCCOCCN5CCN(Cc6ccc(-c7cn([C@H]8CC[C@H](O)CC8)c8nc(NCCC(F)(F)F)ncc78)cc6)CC5)nc4N4CCC(c5ccccc5)C4C(=O)O)c3)cccc12` (stereo partly drawn) [I-168, 1-(5-[3-[5-(Dimethylamino)naphthalene-1-sulfonamido]phenyl]-2-([2-[2-(2-[4-[(4-[7-[trans-4-hydroxycyclohexyl]-2-[(3,3,3-trifluoropropyl)amino]pyrrolo[2,3-d]pyrimidin-5-yl]phenyl)methyl]piperazin-1-yl]ethoxy)ethoxy]ethyl]amino)pyrimidin-4-yl)-3-phenylpyrrolidine-2-carboxylic acid], the Dmax was below 20%.

Turning to `CCCCNc1ncc2c(-c3ccc(C(C)N4CCN(CCCOCCCc5ccc6c(c5)n(C)c(=O)n6C5CCC(=O)NC5=O)CC4)cc3)cn([C@H]3CC[C@H](O)CC3)c2n1` (stereo partly drawn) [I-75, 3-[5-(3-[3-[4-(1-[4-[2-(butylamino)-7-[trans-4-hydroxycyclohexy1]-7H-pyrrolo[2,3-d]pyrimidin-5-yl]phenyl]ethyl)piperazin-1-yl]propoxy]propyl)-3-methyl-2-oxo-2,3-dihydro-1H-1,3-benzodiazol-1-yl]piperidine-2,6-dione; formic acid], the Dmax was above 50%.

Turning to `Cn1c(=O)n([C@H]2CCC(=O)NC2=O)c2cccc(COCCN3CCN(Cc4ccc(-c5cn([C@H]6CC[C@H](O)CC6)c6nc(NCCC(F)(F)F)ncc56)cc4)CC3)c21` [I-152, 3-[3-methyl-2-oxo-4-[(2-[4-[(4-[7-[trans-4-hydroxycyclohexyl]-2-[(3,3,3-trifluoropropyl)amino]pyrrolo[2,3-d]pyrimidin-5-yl]phenyl)methyl]piperazin-1-yl]ethoxy)methyl]-1,3-benzodiazol-1-yl]piperidine-2,6-dione; bis(formic acid)], the Dmax was above 50%.

`CN1C(=O)CC[C@H](n2c(=O)n(C)c3cc(CCCOCCOCCN4CCN(Cc5ccc(-c6cn([C@H]7CC[C@H](O)CC7)c7nc(NCCC(F)(F)F)ncc67)cc5)CC4)ccc32)C1=O` [I-105, 1-methyl-3-(3-methyl-2-oxo-5-[3-[2-(2-[4-[(4-[7-[trans-4-hydroxycyclohexyl]-2-[(3,3,3-trifluoropropyl)amino]-7H-pyrrolo[2,3-d]pyrimidin-5-yl]phenyl)methyl]piperazin-1-yl]ethoxy)ethoxy]propyl]-2,3-dihydro-1H-1,3-benzodiazol-1-yl)piperidine-2,6-dione]: the Dmax lay within 20 to 50%.

Take `Cn1c(=O)n([C@H]2CCC(=O)NC2=O)c2ccc(CCO[C@H]3C[C@@H](N4CCN(Cc5ccc(-c6cn([C@H]7CC[C@H](O)CC7)c7nc(NCCC(F)(F)F)ncc67)cc5)CC4)C3)cc21` [I-143, 3-[3-methyl-2-oxo-5-[2-(3-[4-[(4-[7-[trans-4-hydroxycyclohexyl]-2-[(3,3,3-trifluoropropyl)amino]pyrrolo[2,3-d]pyrimidin-5-yl]phenyl)methyl]piperazin-1-yl]cyclobutoxy)ethyl]-1,3-benzodiazol-1-yl]piperidine-2,6-dione; formic acid]: the Dmax is above 50%.

On to `Cc1ncsc1-c1ccc(CNC(=O)[C@@H]2C[C@@H](O)CN2C(=O)[C@@H](NCCNCCCCCN2CCN(Cc3ccc(-c4cn([C@H]5CC[C@H](O)CC5)c5nc(NCCC(F)(F)F)ncc45)cc3)CC2)C(C)(C)C)cc1` [I-68, (2S,4R)-1-[(2S)-3,3-dimethyl-2-([2-[(5-[4-[(4-[7-[trans-4-hydroxycyclohexyl]-2-[(3,3,3-trifluoropropyl)amino]-7H-pyrrolo[2,3-d]pyrimidin-5yl]phenyl)methyl]piperazin-1-yl]pentyl)amino]ethyl]amino)butanoyl]-4-hydroxy-N-[[4-(4-methyl-1,3-thiazol-5-yl)phenyl]methyl]pyrrolidine-2-carboxamide dihydrochloride], for which the Dmax was below 20%.

With `Cn1c(=O)n([C@H]2CCC(=O)NC2=O)c2ccc(CCCOCCCOCCN3CCN(Cc4ccc(-c5cn([C@H]6CC[C@H](O)CC6)c6nc(NCC7CC7)ncc56)cc4)CC3)cc21` [I-72, 3-(5-[3-[3-(2-[4-[(4-[2-[(cyclopropylmethyl)amino]-7-[trans-4-hydroxycyclohexy1]-7H-pyrrolo[2,3-d]pyrimidin-5-yl]phenyl)methyl]piperazin-1-yl]ethoxy)propoxy]propy1]-3-methyl-2-oxo-2,3-dihydro-1H-1,3-benzodiazol-1-yl)piperidine-2,6-dione; formic acid], the Dmax was above 50%.

Take `CCCCNc1ncc2c(-c3ccc(S(=O)(=O)N4CCN(CCOCCOCCOCCOCCCc5ccc6c(c5)n(C)c(=O)n6[C@H]5CCC(=O)N(C)C5=O)CC4)cc3)cn([C@H]3CC[C@H](O)CC3)c2n1` [I-60, 3-[5-[1-(4-[4-[2-(butylamino)-7-[trans-4-hydroxycyclohexyl]-7H-pyrrolo[2,3-d]pyrimidin-5-yl]benzenesulfonyl]piperazin-1-yl)-3,6,9,12-tetraoxapentadecan-15-y1]-3-methyl-2-oxo-2,3-dihydro-1H-1,3-benzodiazol-1-yl]-1-methylpiperidine-2,6-dione; formic acid]: the Dmax was below 20%.

`CCCCNc1ncc2c(-c3ccc(CN4CCN(CCOCCOCCOCCOCCCc5ccc6c(c5)n(C)c(=O)n6[C@H]5CCC(=O)NC5=O)CC4)nn3)cn([C@H]3CC[C@H](O)CC3)c2n1` [I-76, 3-(5-[1-[4-([6-[2-(butylamino)-7-[trans-4-hydroxycyclohexyl]-7H-pyrrolo[2,3-d]pyrimidin-5-y1]pyridazin-3-y1]methyl)piperazin-1-y1]-3,6,9,12-tetraoxapentadecan-15-y1]-3-methyl-2-oxo-2,3-dihydro-1H-1,3-benzodiazol-1-y1)piperidine-2,6-dione; formic acid]: the Dmax was above 50%.

Consider `Cc1ncsc1-c1ccc(CNC(=O)[C@@H]2C[C@@H](O)CN2C(=O)[C@@H](NC(=O)C2(F)CC2)C(C)(C)C)c(OCCCCN2CCN(Cc3ccc(-c4cn([C@H]5CC[C@H](O)CC5)c5nc(NCCC(F)(F)F)ncc45)cc3)CC2)c1` [I-179, (2S,4R)-1-[(2S)-2-[(1-fluorocyclopropyl)formamido]-3,3-dimethylbutanoyl]-4-hydroxy-N-[[4-(4-methyl-1,3-thiazol-5-yl)-2-(4-[4-[(4-[7-[trans-4-hydroxycyclohexyl]-2-[(3,3,3-trifluoropropyl)amino]pyrrolo[2,3-d]pyrimidin-5-yl]phenyl)methyl]piperazin-1-yl]butoxy)phenyl]methyl]pyrrolidine-2-carboxamide], for which the Dmax lay within 20 to 50%.

As for `Cn1c(=O)n([C@H]2CCC(=O)NC2=O)c2cccc(CCCOCCCOCCCNCc3ccc(-c4cn([C@H]5CC[C@H](O)CC5)c5nc(NCCC(F)(F)F)ncc45)cc3)c21` [I-52, 3-(3-methyl-2-oxo-4-[3-[3-(3-[[(4-[7-[trans-4-hydroxycyclohexyl]-2-[(3,3,3-trifluoropropyl)amino]-7H-pyrrolo[2,3-d]pyrimidin-5-yl]phenyl)methyl]amino]propoxy)propoxy]propyl]-2,3-dihydro-1H-1,3-benzodiazol-1-y1)piperidine-2,6-dione hydrochloride], the Dmax is above 50%.

With `CCCCNc1ncc2c(-c3ccc(CN4CCN(CCCOCCCOCCCc5ccc6c(c5)n(C)c(=O)n6[C@H]5CCC(=O)NC5=O)CC4)cc3)cn([C@H]3CC[C@H](O)CC3)c2n1` [I-62, 3-[5-[3-(3-[3-[4-([4-[2-(butylamino)-7-[trans-4-hydroxycyclohexy1]-7H-pyrrolo[2,3-d]pyrimidin-5-yl]phenyl]methyl)piperazin-1-y1]propoxy]propoxy)propy1]-3-methyl-2-oxo-2,3-dihydro-1H-1,3-benzodiazol-1-y1]piperidine-2,6-dione dihydrochloride], the Dmax was above 50%.

For the origin of these results see patent US20260042762A1 (Kymera Therapeutics, Inc., priority 2018, published 2026).
